Values of other authors in publication PMC5598522 (Toxicology Reports, 2014).

Legend:
[1] = cited from earlier work
[2] = Wistar rats; cited from earlier work
[3] = system: rats; conditions: cited from earlier work

Structure (SMILES)	Tumor incidences in 2 year carcinogenicity bioassay [1]	Weight gain [2]	Uterine and mammary tumors [3]
COC(=O)[C@H](c1ccccc1Cl)N1CCc2sccc2C1 [Clopidogrel]	did not alter tumor incidences	–	–
CC(C)C[C@H]1C(=O)N2CCC[C@H]2[C@]2(O)O[C@](NC(=O)[C@@H]3C=C4c5cccc6[nH]c(Br)c(c56)C[C@H]4N(C)C3)(C(C)C)C(=O)N12 [bromocriptine]	–	inhibited weight gain	increases uterine and decreases mammary tumors only in rats
